“And” between values parts separate entries of the source, which are not always exact repeats. Identical values can stand only once.
Experiment: solvent given as SMILES

SMILES: CC1=C(c2ccc(N(c3ccccc3)c3ccccc3)cc2)C(C)=[N+]2C1=C(c1c(-c3ccccn3)nc3ccccn13)c1c(C)c(-c3ccc(N(c4ccccc4)c4ccccc4)cc3)c(C)n1[B-]2(F)F
- emission maximum (in ClCCl): 709 nm

SMILES: C#CCNC1=C2C=CC=[N+]2[B-](F)(F)n2cccc21
- emission maximum (in C1CCCCC1): 482 nm and 486 nm
- emission maximum (in CC(C)=O): 466.5 nm
- emission maximum (in CCCCO): 463 nm
- emission maximum (in CCCO): 467 nm
- emission maximum (in CCO): 463 nm and 468 nm
- emission maximum (in CCOC(C)=O): 469.5 nm
- emission maximum (in CN(C)C=O): 458 nm
- emission maximum (in CO): 464.5 nm
- emission maximum (in CS(C)=O): 463 nm
- emission maximum (in Cc1ccccc1): 485 nm
- emission maximum (in ClC(Cl)Cl): 485 nm
- emission maximum (in OCC(F)(F)F): 480.5 nm
- emission maximum (in c1ccccc1): 485 nm

SMILES: O=S(=O)(c1ccc(N2c3ccccc3Oc3ccccc32)cc1)c1ccc(N2c3ccccc3Oc3ccccc32)cc1
- emission maximum (in C1COCCO1): 524 nm
- emission maximum (in CC(C)=O): 577 nm
- emission maximum (in Cc1ccccc1): 507 nm
- emission maximum (in ClC(Cl)Cl): 539 nm
- emission maximum (in c1cc(-n2c3ccccc3c3ccccc32)cc(-n2c3ccccc3c3ccccc32)c1): 505 nm

SMILES: CN(CC(O)c1cccc(O)c1)c1ccc([N+](=O)[O-])c(C2CC(c3cccc4ccccc34)=NN2c2ccccc2)c1 (centres undefined)
- emission maximum (in C1CCCCC1): 495 nm
- emission maximum (in C1CCOC1): 467 nm
- emission maximum (in C1COCCO1): 454 nm
- emission maximum (in CC#N): 526 nm
- emission maximum (in CC(C)O): 511 nm
- emission maximum (in CCOC(C)=O): 498 nm
- emission maximum (in CCOCC): 497 nm
- emission maximum (in CO): 514 nm
- emission maximum (in Cc1ccccc1): 497 nm
- emission maximum (in ClC(Cl)Cl): 451 nm
- emission maximum (in O): 518 nm

SMILES: Cc1sc(Cl)cc1-c1nc(-c2ccc(Cl)cc2)[nH]c1-c1cc(Cl)sc1C
- emission maximum (in CC#N): 390 nm

SMILES: c1cnc(-c2c3ccccc3c(-c3cncnc3)c3ccccc23)nc1
- emission maximum (in CCO): 433 nm
- emission maximum (in ClCCl): 436 nm

SMILES: COCCC1=Cc2nc1ccc1[nH]c(cc1CCOC)c1nc(c(OC)cc3[nH]c2cc3CCOC)C(CCOC)=C1
- emission maximum (in Cc1ccccc1): 690 nm

SMILES: O=C1/C(=C2\Sc3ccc(S(=O)(=O)O)cc3C2=O)Sc2ccc(S(=O)(=O)O)cc21
- emission maximum (in C1COCCO1): 587 nm
- emission maximum (in CN(C)C=O): 613 nm
- emission maximum (in CO): 629 nm
- emission maximum (in CS(C)=O): 629 nm
- emission maximum (in O): 644 nm

SMILES: c1ccc(-n2c(-c3ccc(N(c4ccc(-c5ccc(N(c6ccc(-c7nc8c9ccccc9c9ccccc9c8n7-c7ccccc7)cc6)c6ccc(-c7nc8c9ccccc9c9ccccc9c8n7-c7ccccc7)cc6)cc5)cc4)c4ccc(-c5nc6c7ccccc7c7ccccc7c6n5-c5ccccc5)cc4)cc3)nc3c4ccccc4c4ccccc4c32)cc1
- emission maximum (in ClCCl): 432 nm

SMILES: CCCCn1c2ccc(-c3cccc(F)c3)cc2c2ccc3c4cc(-c5cccc(F)c5)ccc4n(CCCC)c3c21
- emission maximum (in ClC(Cl)Cl): 411 nm

SMILES: CCN(CC)c1ccc2cc(-c3csc(N)c3C#N)c(=O)oc2c1
- emission maximum (in C1CCOC1): 458 nm
- emission maximum (in CO): 514 nm
- emission maximum (in CS(C)=O): 482 nm
- emission maximum (in Cc1ccccc1): 447 nm
- emission maximum (in ClCCl): 464 nm

SMILES: [O-][n+]1c(/C=C/c2ccccc2)nc(Nc2ccccc2)c2c1CCCC2
- emission maximum (in ClCCl): 508 nm

SMILES: CN(C)c1cc(-c2ccc(C#Cc3ccccc3)cc2)cc2ccccc12
- emission maximum (in CC#N): 500.89 nm
- emission maximum (in CCO): 471.6 nm
- emission maximum (in ClCCl): 470 nm

SMILES: CCCCCCCCCCCCOc1cc2c3c(ccc4c5c(N6CCOCC6)cc6c7c(ccc(c1c34)c75)C(=O)N(C1CCCCC1)C6=O)C(=O)N(C1CCCCC1)C2=O
- emission maximum (in ClC(Cl)Cl): 697 nm

SMILES: C(=C\c1c2ccccc2cc2ccccc12)/c1ccccc1
- emission maximum (in CC1CCCCC1): 468 nm
- emission maximum (in CC#N): 476 nm

SMILES: CN(C)c1ccc(C#Cc2cc(C#Cc3ccc(C(F)(F)F)cc3)c3ccc4c(C#Cc5ccc(C(F)(F)F)cc5)cc(C#Cc5ccc(N(C)C)cc5)c5ccc2c3c54)cc1
- emission maximum (in ClCCl): 608 nm

SMILES: CC1=CC(C)=[N+]2C1=Cc1c3ccccc3c(C#Cc3cccs3)n1[B-]2(F)F
- emission maximum (in CCCCCC): 628 nm
- emission maximum (in CCCCCCCCO): 636 nm
- emission maximum (in CCOC(C)=O): 632 nm
- emission maximum (in CN(C)C=O): 639 nm
- emission maximum (in ClCCl): 631 nm

SMILES: [BH3-][P+]1(c2ccccc2)c2ccccc2-c2sc3ccccc3c21 (centres undefined)
- emission maximum (in C1CCCCC1): 395 nm
- emission maximum (in CC#N): 401 nm
- emission maximum (in CCO): 400 nm
- emission maximum (in ClCCl): 400 nm

SMILES: COc1ccc(C2=C(c3ccc(OC)cc3)C(C)(C)c3cc(OC)ccc32)cc1
- emission maximum (in C1CCCCC1): 398 nm

SMILES: c1ccc(-c2nc(-c3ccc(-n4c5ccc(-n6c7ccccc7c7ccccc76)cc5c5ccc6c(c7ccccc7n6-c6ccccc6)c54)cc3)c3sc4ccccc4c3n2)cc1
- emission maximum (in Cc1ccccc1): 460.56 nm

SMILES: c1ccc(-c2nn(-c3ccccc3)c3nc4ccc(N(c5ccccc5)c5cccc6ccccc56)cc4cc23)cc1
- emission maximum (in C1CCCCC1): 484.73 nm
- emission maximum (in C1CCOC1): 516 nm
- emission maximum (in CC#N): 555.25 nm
- emission maximum (in CC(C)=O): 538.21 nm
- emission maximum (in CCCCCl): 509.68 nm
- emission maximum (in CCCCOCCCC): 494.8 nm
- emission maximum (in CN(C)C=O): 553.1 nm

SMILES: CCn1c2ccccc2c2cc(C#Cc3cc(C#Cc4ccc5c(c4)c4ccccc4n5CC)nc(C#N)n3)ccc21
- emission maximum (in C1CCOC1): 495 nm
- emission maximum (in CCOC(C)=O): 494 nm
- emission maximum (in CN(C)C=O): 557 nm
- emission maximum (in Cc1ccccc1): 445 nm
- emission maximum (in ClCCl): 510 nm

SMILES: CCCCN(CCCC)c1ccc(C#Cc2cc(C#Cc3ccc(N(CCCC)CCCC)cc3)c(C#Cc3c(F)c(F)c(F)c(F)c3F)cc2C#Cc2c(F)c(F)c(F)c(F)c2F)cc1
- emission maximum (in ClCCl): 555 nm
- emission maximum (in c1ccccc1): 512 nm

SMILES: N=c1oc2ccccc2cc1-c1ccc([N+](=O)[O-])cc1
- emission maximum (in C1CCOC1): 442 nm
- emission maximum (in CC#N): 550 nm
- emission maximum (in CS(C)=O): 589 nm
- emission maximum (in ClC(Cl)Cl): 436 nm

SMILES: O=C(O)CCCCCn1c2ccccc2c(=O)c2cc(S(=O)(=O)O)ccc21
- emission maximum (in O): 428 nm

SMILES: c1ccc2[nH]c(-c3ccc(-c4ccc(-c5ccc(-c6nc7ccccc7[nH]6)cc5)cc4)cc3)nc2c1
- emission maximum (in CN(C)C=O): 409 nm

SMILES: O=c1ccc2cc3c(cc2o1)OCC3
- emission maximum (in CC(C)O): 400 nm
- emission maximum (in CCO): 402 nm
- emission maximum (in CCOCC): 397 nm
- emission maximum (in CO): 405 nm
- emission maximum (in O): 410 nm

SMILES: CC(C)(C)n1c(=O)c2cc3ccc4cccc5ccc(c2c1=O)c3c45
- emission maximum (in ClC(Cl)Cl): 451 nm

SMILES: CC[n+]1c(C=C2C(=O)C(C=C3N(C)c4ccc(Cl)cc4C3(C)C)=C2[O-])[se]c2ccccc21
- emission maximum (in CO): 662 nm
- emission maximum (in ClC(Cl)Cl): 677 nm

SMILES: COc1ccc(-c2cnc3cccc(-c4ccccc4)n23)cc1
- emission maximum (in ClCCl): 484 nm

SMILES: Cc1c(C)c(-c2cccnc2)c(C)c(C)c1B(c1c(C)c(C)c(-c2cccnc2)c(C)c1C)c1c(C)c(C)c(-c2cccnc2)c(C)c1C
- emission maximum (in ClCCl): 403 nm

SMILES: N#CC1=c2c3cccc4c(Br)ccc(c43)n2[B-](F)(F)[n+]2ccccc21
- emission maximum (in C1CCOC1): 545 nm
- emission maximum (in CC#N): 541 nm
- emission maximum (in CCCCCC): 545 nm
- emission maximum (in Cc1ccccc1): 550 nm
- emission maximum (in ClCCl): 546 nm

SMILES: F[B-]1(F)n2c(cc3c4ccccc4c4ccccc4c32)-c2ccc3ccccc3[n+]21
- emission maximum (in ClCCl): 585 nm

SMILES: CCOC(=O)C1=C(C(=O)OCC)C2(c3ccccc3-c3ccccc32)[C@@H](c2ccccc2)C=C2c3cc(OC)c(OC)cc3CCN21
- emission maximum (in ClCCl): 430 nm

SMILES: c1cc2ccc3[s+]c4ccc5cccc6c7cccc8c(c1)c2c3c(c87)c4c56
- emission maximum (in ClCCl): 643 nm

SMILES: Cc1ccc(-c2ccc(/C=C/c3ccc(F)cc3)cn2)nc1
- emission maximum (in CC#N): 391 nm
